Literature values in patent US20080206348A1, “Cilostazol-Containing Pharmaceutical Composition Based On Particles Of Less Than 50 Micrometers” (priority 2004, published 2008).

Solubility in water: practically insoluble
SMILES: O=C1CCc2cc(OCCCCc3nnnn3C3CCCCC3)ccc2N1 [Cilostazol]
